This note sets out measurements from patent US6664231B1, “Anti-fungal peptides” (priority 1993, dated 2003).

Square brackets hold non-standard residues; d marks the D form. Peptide text beside a SMILES is read from it. * marks the point of attachment. d2Nal = N[C@H](Cc1ccc2ccccc2c1)C(=O)O; Lauroyl = CCCCCCCCCCCC(=O)*; Orn = NCCC[C@H](N)C(=O)O

One data set in a line: in vitro. Type of data set: in vitro ADME, rat or human serum. The following applies: half-life of peptide in serum as detected by HPLC analysis; for half-life at 0.5 mg/mL: serum, read-out: HPLC Peptide in Serum t ½ (converted). On the procedure: (§1) For these serum stability experiments, peptides were prepared by solid phase peptide sythesis and purified to 94% or greater purity as described in Example 1. Blood was collected from metaphane anesthesized rats by aortic bleed into Vacutainer™ tubes and allowed to clot at room temperature for approximately 30 minutes, then centrifuged at 3000 rpm (about 1000×g) for 10 minutes at room temperature and the serum aspirated. In addition, frozen human serum (North American Biologics, Inc., Miami, Fla., cat. no. 2140, lot no. 94115) was thawed at room temperature and filtered through a 0.45 μm membrane before use.
(§2) A 1 mg/mL solution of an exemplary XMP peptide to be tested was added to an equal volume of either rat or human serum described above and maintained at 37° C. At 0, 1, 2, and 4 hours, 100 μL were removed and processed by solid phase extraction for HPLC analysis as follows. Serum samples were prepared for HPLC using C-18 Sep-Pak cartridges (1 mL cartridge with 100 mg of sorbent, Waters Corp., Milford, Mass.). One hundred μL of serum sample were added to an equal volume of 1% TFA and mixed for 30 seconds on a Vortex mixer. The sample was then applied to a C-18 Sep-Pak cartridge that had been conditioned by washing with 1 mL of methanol followed by 1 mL Milli-Q water. Weakly reed components were eluted by washing with 1 mL of 0. 1% TFA. The bound peptide was eluted with two volumes of 250 μL 80% acetonitrile/0.065% TFA.
The material eluted from the Sep-Pak cartridge was analyzed on a Michrom Ultaafast Microprotein Analyzer equipped with a 150 mm×1 mm, 5μ particle, 300 Å pore C-8 Zorbax column. The column oven was set to 40° C., the flow rate was 100 μL/minute, and injection volumes were typically 5-10 μL. HPLC was performed using 5% acetonitrile/0.1% TFA in water as mobile phase A, and 80% acetonitrile/0.065% TFA as mobile phase B. The eluate was monitored spectiophotometrically at 214 nm. Peptide standards were dissolved in mobile phase A at 0. 1 mg/mL. The gradient was 25-35% B/10 minutes followed by a 5 minute wash step of 100% B and reequilibration at 25% B for 10 minutes.

Data set [1] relates to C. albicans (CA-1, Strain SLU-1). The data set can be described thus: Radial diffusion assay. It is filed as cell-based, Candida albicans. The note with it: pmoles of peptide added to well to achieve a 30 mm^2 zone, PROBIT analysis, crude or purified (P′) peptide. In short, it runs like this: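 Peptides, serially diluted 2-fold in D-PBS (top ~1 mg/mL), diffused 3 h at 37° C into pH 7.4 phosphate-buffered agarose seeded with 1×10^6 CFU/mL yeast, before overnight growth under a 6% Sabouraud overlayer. Net inhibition zones measured after Coomassie staining; PROBIT fit of log pmol vs area gave pmol for 30 mm^2.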

The subject of data set [2] is Candida albicans SLU-1 strain. Kind of data set: Serum stability, anti-fungal activity after serum incubation by radial diffusion bioassay. Type of data set: in vitro ADME, rat or human serum. On the procedure: as §1, §2
(§3) The peptides identified and purified after serum incubation as described above were subjected to N-terminal peptide sequencing performed on an Applied Biosystems Model 477A/120A sequencer and to electrospray ionization mass spectrometry (ESI/MS) performed using a VG Biotech Bio-Q Mass Spectrometer. In addition, the peptides identified and purified after serum incubation as described above were also tested for their anti-fungal activity in a radial diffusion bioassay with Candida albicans SLU-1 strain as described in Example 2.

Assay in data set [3]: as above
Type of data set: in vitro ADME, rat or human serum. The note with it: Activity in Serum t ½ (hr.). On the procedure:
as §1, §2, §3

In a further data set the test system is mouse RAW 264.7 cells. The following applies: RAW 264.7 cell growth inhibited by 50%.
Data set [4] has as its system mouse RAW 264.7 cells incubated with E. coli O113 LPS. The following applies: RAW 264.7 cells with E. coli O113 LPS; concentration reversing LPS growth inhibition by 50%.

With `CC[C@@H](C)[C@@H](NC(=O)[C@@H](CCC(N)=O)NC(=O)[C@@H](CC(C)C)NC(=O)[C@H](N)CCCCN)C(=O)N[C@H](CC(C)C)C(=O)N[C@H](Cc1c[nH]c2ccccc12)C(=O)N[C@H](CCCCN)C(=O)N[C@H](CCCCN)C(N)=O` [XMP.374], the “HPLC Peptide in Serum t ½ (hr.)” value in “in vitro” was “indefinite”. For the same molecule, in data set [1], the “C. albicans pmol/30 mm^2 zone” value was 198 pmol/30 mm^2 zone. In addition, the “Activity in Serum t ½ (hr.)” value in data set [2] is recorded as “indefinite”.
With `CC[C@H](C)[C@H](NC(=O)[C@H](CC(C)C)NC(=O)[C@@H](Cc1c[nH]c2ccccc12)NC(=O)[C@@H](CCCCN)NC(C)=O)C(=O)N[C@@H](CCC(N)=O)C(=O)N[C@@H](CC(C)C)C(=O)N[C@@H](Cc1ccccc1)C(=O)N[C@@H](Cc1c[nH]cn1)C(=O)N[C@H](CCCCN)C(=O)N[C@H](CCCCN)C(N)=O` [XMP.364], the half-life at 0.5 mg/mL in the data set “in vitro” is 25 h. For the same molecule, the “C. albicans pmol/30 mm^2 zone” value in data set [1] was 1,523 pmol/30 mm^2 zone. In addition, the “Activity in Serum t ½ (hr.)” value in data set [2] is “indefinite”.
Consider `CC[C@H](C)[C@H](NC(=O)[C@H](CC(C)C)NC(=O)[C@H](Cc1c[nH]c2ccccc12)NC(=O)[C@@H](N)CCCCN)C(=O)N[C@@H](CCCN)C(=O)N[C@@H](CC(C)C)C(=O)N[C@@H](Cc1ccccc1)C(=O)N[C@@H](Cc1c[nH]cn1)C(=O)N[C@@H](CCCCN)C(=O)N[C@@H](CCCCN)C(N)=O` [XMP.369] (H-KWLI[Orn]LFHKK-NH2), for which the half-life at 0.5 mg/mL was 0.6 h in the data set “in vitro” and 1.4 h in data set [3]. Also, the “C. albicans pmol/30 mm^2 zone” value in data set [1] worked out at 993 pmol/30 mm^2 zone; in data set [1] (listed as XMP.369P′) it was 877 pmol/30 mm^2 zone.
`CC[C@@H](C)[C@@H](NC(=O)[C@@H](C)NC(=O)[C@@H](Cc1c[nH]c2ccccc12)NC(=O)[C@@H](CCCCN)NC(=O)[C@H](N)CCCCN)C(=O)N[C@H](CCC(N)=O)C(=O)N[C@H](CC(C)C)C(=O)N[C@H](CCCCN)C(=O)N[C@H](CCCCN)C(N)=O` [XMP.375] (H-[dK][dK][dW][dA][dI][dQ][dL][dK][dK]-NH2): the “HPLC Peptide in Serum t ½ (hr.)” value in the data set “in vitro” is “indefinite”. Further, the “C. albicans pmol/30 mm^2 zone” value in data set [1] stood at 123 pmol/30 mm^2 zone. In addition, in data set [2], the “Activity in Serum t ½ (hr.)” value is “indefinite”.
Take H-GWLIQLFHKK-NH2 [XMP.388]: the half-life at 0.5 mg/mL in “in vitro” is 0.4 h; in data set [3], 1.4 h. In data set [1], the “C. albicans pmol/30 mm^2 zone” value was determined as 170 pmol/30 mm^2 zone.
Take `CC[C@H](C)[C@H](NC(=O)[C@H](CC(C)C)NC(=O)[C@H](Cc1c[nH]c2ccccc12)NC(=O)[C@H](CCCCN)NC(=O)[C@H]1CCCN1)C(=O)N[C@@H](CCC(N)=O)C(=O)N[C@@H](CC(C)C)C(=O)N[C@@H](CCCCN)C(=O)N[C@@H](CCCCN)C(N)=O` [XMP.334]: the half-life at 0.5 mg/mL in “in vitro” is 3.2 h; in data set [3], 4.7 h. Moreover, the “C. albicans pmol/30 mm^2 zone” value in data set [1] is on record as 1,449 pmol/30 mm^2 zone; in data set [1] (listed as XMP.334P′), 1,065 pmol/30 mm^2 zone.
Turning to H-PWLIQLFHKK-NH2 [XMP.355], the half-life at 0.5 mg/mL in the data set “in vitro” was 3.2 h; in data set [3] it was 5.7 h. Further, the “C. albicans pmol/30 mm^2 zone” value was 2,529 pmol/30 mm^2 zone in data set [1] and 218 pmol/30 mm^2 zone in data set [1] (listed as XMP.355P′).
Regarding `CCCCCCCCCCCC(=O)N[C@@H](CCCCN)C(=O)N[C@@H](CCCCN)C(=O)N[C@@H](Cc1c[nH]c2ccccc12)C(=O)N[C@@H](C)C(=O)N[C@H](C(=O)N[C@@H](CCC(N)=O)C(=O)N[C@@H](CC(C)C)C(=O)N[C@@H](CCCCN)C(=O)N[C@@H](CCCCN)C(N)=O)[C@@H](C)CC` [XMP.411] (Lauroyl-KKWAIQLKK-NH2; C-terminus assumed), the half-life at 0.5 mg/mL in “in vitro” is 9.7 h; in data set [3] it was 4.2 h. The “IC50 (toxicity/growth inhibition of peptide)” value in the data set on mouse RAW 264.7 cells is greater than 25 µg/mL. Besides, in data set [4], the “In Vitro LPS Neutralization EC50” value is 2.94 ± 0.14 µg/mL.
With H-KKWAIQLKK-NH2 [XMP.344], the half-life at 0.5 mg/mL in “in vitro” is 0.6 h; in data set [3], 3.3 h. For the same molecule, in data set [1], the “C. albicans pmol/30 mm^2 zone” value is listed as 251 pmol/30 mm^2 zone.
As to `CC[C@H](C)[C@H](NC(=O)[C@H](CC(C)C)NC(=O)[C@H](Cc1c[nH]c2ccccc12)NC(=O)[C@H](CCCCN)NC(=O)[C@@H]1CCCN1)C(=O)N[C@@H](CCC(N)=O)C(=O)N[C@@H](CC(C)C)C(=O)N[C@@H](CCCCN)C(=O)N[C@@H](CCCCN)C(N)=O` [XMP.335], the half-life at 0.5 mg/mL in the data set “in vitro” was 2.9 h; in data set [3] it was 1.3 h. Moreover, the “C. albicans pmol/30 mm^2 zone” value in data set [1] was 871 pmol/30 mm^2 zone; in data set [1] (listed as XMP.335P′) it was 1,353 pmol/30 mm^2 zone.
Take `CC[C@@H](C)[C@@H](NC(=O)[C@@H](CCC(N)=O)NC(=O)[C@@H](CC(C)C)NC(=O)[C@@H](Cc1ccccc1)NC(=O)[C@@H](Cc1c[nH]cn1)NC(=O)[C@@H](CCCCN)NC(=O)[C@@H](CCCCN)NC(C)=O)C(=O)N[C@H](CC(C)C)C(=O)N[C@H](Cc1c[nH]c2ccccc12)C(=O)N[C@H](CCCCN)C(N)=O` [XMP.368]: the half-life at 0.5 mg/mL in the data set “in vitro” was 34.1 h; in data set [3] it was 25.2 h. Besides, the “C. albicans pmol/30 mm^2 zone” value in data set [1] is 744 pmol/30 mm^2 zone.
On the same counts, the results for H-KKWLIQLKKK-NH2 [XMP.349] are 1.4 h, 3.3 h and 120 pmol/30 mm^2 zone.
On the same counts, the results for H-KKWLIQLFHKK-NH2 [XMP.352] are 0.7 h, 1.2 h and 354 pmol/30 mm^2 zone.
On the same counts, the results for `CC[C@H](C)[C@H](NC(=O)[C@H](CC(C)C)NC(=O)[C@H](Cc1c[nH]c2ccccc12)NC(=O)[C@H](CCCCN)NC(C)=O)C(=O)N[C@@H](CCCN)C(=O)N[C@@H](CC(C)C)C(=O)N[C@@H](Cc1ccccc1)C(=O)N[C@@H](Cc1c[nH]cn1)C(=O)N[C@@H](CCCCN)C(=O)N[C@@H](CCCCN)C(N)=O` [XMP.370] (Ac-KWLI[Orn]LFHKK-NH2) are 2.9 h, 4.7 h and 310 pmol/30 mm^2 zone.
As to `CC[C@H](C)[C@H](NC(=O)[C@H](CC(C)C)NC(=O)[C@@H](Cc1ccc2ccccc2c1)NC(=O)[C@H](CCCCN)NC(=O)[C@@H](N)CCCCN)C(=O)N[C@@H](CC(C)C)C(=O)N[C@@H](CC(C)C)C(=O)N[C@@H](CCCCN)C(=O)N[C@@H](CCCCN)C(N)=O` [XMP.347] (H-KK[d2Nal]LILLKK-NH2), the half-life at 0.5 mg/mL in “in vitro” was 2.5 h; in data set [3] it was 5.2 h. The “C. albicans pmol/30 mm^2 zone” value in data set [1] was found to be 391 pmol/30 mm^2 zone.
On the same counts, the results for H-PWAIQLFHKK-NH2 [XMP.387] are 2.8 h, 2.3 h and 82 pmol/30 mm^2 zone.
Regarding H-KKWLIQAKK-NH2 [XMP.345], the half-life at 0.5 mg/mL is 1.4 h in “in vitro” and 2.7 h in data set [3]. Also, the “C. albicans pmol/30 mm^2 zone” value in data set [1] is reported as 1,211 pmol/30 mm^2 zone.
